This is an account of results in ChEMBL document CHEMBL2034857, “Discovery of the macrocycle (9E)-15-(2-(pyrrolidin-1-yl)ethoxy)-7,12,25-trioxa-19,21,24-triaza-tetracyclo[18.3.1.1(2,5).1(14,18)]hexacosa-1(24),2,4,9,14(26),15,17,20,22-nonaene (SB1578), a potent inhibitor of janus kinase 2/fms-like tyrosine kinase-3 (JAK2/FLT3) for the treatment of rheumatoid …” (J Med Chem, 2012).

Molecules are shown by their SMILES. pIC50: −log10 of the molar value.

One may read the pIC50 as −log10 of the IC50, conventionally taken in molar units.

Assay [1] addresses Cyclin-dependent kinase 2 (Homo sapiens, UniProt P24941). The assay can be described thus: Inhibition of recombinant CDK2 using RbING as substrate after 2 hrs by luminometric assay.
The target of assay [2] is Tyrosine-protein kinase JAK1 (Homo sapiens, UniProt P23458). The assay can be described thus: Inhibition of recombinant JAK1 using poly(Glu,Ala,Tyr) as substrate after 2 hrs by luminometric assay.
The target of assay [3] is Tyrosine-protein kinase JAK2 (Homo sapiens, UniProt O60674). The assay can be described thus: Inhibition of recombinant JAK2 using poly(Glu,Ala,Tyr) as substrate after 2 hrs by luminometric assay.
Assay [4] concerns the target T1, Tyrosine-protein kinase JAK3 (Homo sapiens, UniProt P52333).
T1 sequence (P52333 whole entry): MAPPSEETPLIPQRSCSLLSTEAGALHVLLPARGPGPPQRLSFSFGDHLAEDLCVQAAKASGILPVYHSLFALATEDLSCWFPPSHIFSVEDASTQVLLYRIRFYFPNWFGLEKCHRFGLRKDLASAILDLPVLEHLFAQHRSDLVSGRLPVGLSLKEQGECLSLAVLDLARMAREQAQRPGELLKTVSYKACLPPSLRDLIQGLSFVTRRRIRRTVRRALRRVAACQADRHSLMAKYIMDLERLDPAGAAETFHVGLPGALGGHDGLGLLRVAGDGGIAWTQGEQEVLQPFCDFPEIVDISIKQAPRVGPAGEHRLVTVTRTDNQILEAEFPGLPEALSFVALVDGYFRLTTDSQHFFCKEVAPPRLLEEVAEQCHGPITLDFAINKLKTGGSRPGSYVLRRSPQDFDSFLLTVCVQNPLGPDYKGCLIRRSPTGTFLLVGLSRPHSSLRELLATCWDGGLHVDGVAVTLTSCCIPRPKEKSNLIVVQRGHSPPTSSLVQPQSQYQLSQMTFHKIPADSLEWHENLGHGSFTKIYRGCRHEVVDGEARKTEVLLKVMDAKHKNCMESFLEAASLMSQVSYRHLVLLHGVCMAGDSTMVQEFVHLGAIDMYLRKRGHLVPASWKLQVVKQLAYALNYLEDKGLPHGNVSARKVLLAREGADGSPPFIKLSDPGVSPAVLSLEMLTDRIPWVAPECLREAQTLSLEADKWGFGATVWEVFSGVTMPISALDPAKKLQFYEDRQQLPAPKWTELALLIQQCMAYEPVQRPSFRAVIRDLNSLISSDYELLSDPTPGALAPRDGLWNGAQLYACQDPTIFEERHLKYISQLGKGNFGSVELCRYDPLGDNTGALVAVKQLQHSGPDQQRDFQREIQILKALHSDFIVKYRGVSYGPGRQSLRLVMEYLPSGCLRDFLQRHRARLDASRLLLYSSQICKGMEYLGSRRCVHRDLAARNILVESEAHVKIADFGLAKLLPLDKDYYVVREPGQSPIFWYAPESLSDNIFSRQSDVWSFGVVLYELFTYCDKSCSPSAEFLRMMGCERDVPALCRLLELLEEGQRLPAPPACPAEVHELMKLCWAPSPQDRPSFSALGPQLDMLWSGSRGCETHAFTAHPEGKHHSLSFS
The assay can be described thus: Inhibition of recombinant JAK3 using poly(Glu,Ala,Tyr) as substrate after 2 hrs by luminometric assay.

The target of assay [5] is T2, Receptor-type tyrosine-protein kinase FLT3 (Homo sapiens, UniProt P36888).
T2 sequence (P36888 whole entry): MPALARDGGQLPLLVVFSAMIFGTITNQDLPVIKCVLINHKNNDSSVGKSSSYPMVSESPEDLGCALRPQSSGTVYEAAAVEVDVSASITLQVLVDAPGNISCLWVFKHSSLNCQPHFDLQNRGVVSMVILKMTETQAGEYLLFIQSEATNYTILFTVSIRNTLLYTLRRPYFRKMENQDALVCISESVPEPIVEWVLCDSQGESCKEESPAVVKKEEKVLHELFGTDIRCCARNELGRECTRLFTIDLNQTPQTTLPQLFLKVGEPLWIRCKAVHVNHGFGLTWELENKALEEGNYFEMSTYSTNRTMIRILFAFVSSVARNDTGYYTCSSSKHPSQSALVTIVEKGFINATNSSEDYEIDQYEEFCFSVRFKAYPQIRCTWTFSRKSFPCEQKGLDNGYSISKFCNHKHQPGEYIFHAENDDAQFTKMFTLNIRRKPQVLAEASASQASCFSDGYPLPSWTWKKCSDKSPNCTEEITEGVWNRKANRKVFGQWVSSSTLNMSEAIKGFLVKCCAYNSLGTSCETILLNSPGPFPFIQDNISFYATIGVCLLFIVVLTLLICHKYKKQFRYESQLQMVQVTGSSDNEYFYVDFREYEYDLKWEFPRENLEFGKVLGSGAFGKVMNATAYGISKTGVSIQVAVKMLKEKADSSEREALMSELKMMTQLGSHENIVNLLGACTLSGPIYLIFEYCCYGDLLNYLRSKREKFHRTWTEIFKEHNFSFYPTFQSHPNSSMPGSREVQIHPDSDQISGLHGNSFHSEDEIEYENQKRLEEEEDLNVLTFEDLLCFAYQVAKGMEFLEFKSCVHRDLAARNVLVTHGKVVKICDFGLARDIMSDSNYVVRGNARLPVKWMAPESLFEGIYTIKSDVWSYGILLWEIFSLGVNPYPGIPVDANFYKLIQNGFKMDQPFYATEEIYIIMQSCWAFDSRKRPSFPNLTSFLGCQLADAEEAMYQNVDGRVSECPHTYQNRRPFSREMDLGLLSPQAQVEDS
The assay can be described thus: Inhibition of recombinant FLT3 using poly(Glu,Tyr) as substrate after 2 hrs by luminometric assay.

For assay [6], the target named is Non-receptor tyrosine-protein kinase TYK2 (Homo sapiens, UniProt P29597). The assay can be described thus: Inhibition of TYK2.
Assay [7] is described as follows: Selectivity ratio of IC50 for recombinant CDK2 to IC50 for recombinant JAK2.
The nature of assay [8]: Selectivity ratio of IC50 for recombinant JAK1 to IC50 for recombinant JAK2.
Assay [9] can be described thus: Selectivity ratio of IC50 for recombinant JAK3 to IC50 for recombinant JAK2.

Tyrosine-protein kinase JAK2, sequence (O60674 whole entry): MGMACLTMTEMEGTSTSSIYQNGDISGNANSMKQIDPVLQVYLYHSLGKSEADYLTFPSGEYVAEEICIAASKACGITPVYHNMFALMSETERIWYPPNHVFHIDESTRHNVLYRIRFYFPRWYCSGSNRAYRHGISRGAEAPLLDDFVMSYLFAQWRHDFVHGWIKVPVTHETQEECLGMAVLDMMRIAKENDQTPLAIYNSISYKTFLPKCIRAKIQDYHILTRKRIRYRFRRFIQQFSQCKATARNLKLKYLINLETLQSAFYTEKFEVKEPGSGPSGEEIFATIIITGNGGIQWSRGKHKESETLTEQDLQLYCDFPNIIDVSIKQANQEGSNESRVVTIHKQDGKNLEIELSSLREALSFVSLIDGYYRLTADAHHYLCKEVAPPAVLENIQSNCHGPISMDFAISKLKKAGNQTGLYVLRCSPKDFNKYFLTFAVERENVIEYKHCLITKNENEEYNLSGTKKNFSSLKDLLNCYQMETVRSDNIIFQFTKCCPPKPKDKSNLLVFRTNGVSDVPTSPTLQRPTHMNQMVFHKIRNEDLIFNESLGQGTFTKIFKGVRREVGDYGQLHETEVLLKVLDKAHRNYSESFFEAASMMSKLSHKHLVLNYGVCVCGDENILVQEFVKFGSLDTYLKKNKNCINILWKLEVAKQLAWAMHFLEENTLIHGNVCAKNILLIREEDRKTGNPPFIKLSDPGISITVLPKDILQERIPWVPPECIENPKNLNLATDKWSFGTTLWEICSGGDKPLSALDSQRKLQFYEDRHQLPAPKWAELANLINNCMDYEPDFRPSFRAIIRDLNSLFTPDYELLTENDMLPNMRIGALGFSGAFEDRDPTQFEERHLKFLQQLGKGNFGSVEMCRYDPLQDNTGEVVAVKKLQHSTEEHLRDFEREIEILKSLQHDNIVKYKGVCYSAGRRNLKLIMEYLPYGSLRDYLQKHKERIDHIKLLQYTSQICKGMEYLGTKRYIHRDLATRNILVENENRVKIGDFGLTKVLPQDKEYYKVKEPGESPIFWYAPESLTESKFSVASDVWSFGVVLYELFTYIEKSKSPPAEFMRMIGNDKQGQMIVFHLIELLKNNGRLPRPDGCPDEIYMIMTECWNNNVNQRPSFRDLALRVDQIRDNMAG
Non-receptor tyrosine-protein kinase TYK2, sequence (P29597 whole entry): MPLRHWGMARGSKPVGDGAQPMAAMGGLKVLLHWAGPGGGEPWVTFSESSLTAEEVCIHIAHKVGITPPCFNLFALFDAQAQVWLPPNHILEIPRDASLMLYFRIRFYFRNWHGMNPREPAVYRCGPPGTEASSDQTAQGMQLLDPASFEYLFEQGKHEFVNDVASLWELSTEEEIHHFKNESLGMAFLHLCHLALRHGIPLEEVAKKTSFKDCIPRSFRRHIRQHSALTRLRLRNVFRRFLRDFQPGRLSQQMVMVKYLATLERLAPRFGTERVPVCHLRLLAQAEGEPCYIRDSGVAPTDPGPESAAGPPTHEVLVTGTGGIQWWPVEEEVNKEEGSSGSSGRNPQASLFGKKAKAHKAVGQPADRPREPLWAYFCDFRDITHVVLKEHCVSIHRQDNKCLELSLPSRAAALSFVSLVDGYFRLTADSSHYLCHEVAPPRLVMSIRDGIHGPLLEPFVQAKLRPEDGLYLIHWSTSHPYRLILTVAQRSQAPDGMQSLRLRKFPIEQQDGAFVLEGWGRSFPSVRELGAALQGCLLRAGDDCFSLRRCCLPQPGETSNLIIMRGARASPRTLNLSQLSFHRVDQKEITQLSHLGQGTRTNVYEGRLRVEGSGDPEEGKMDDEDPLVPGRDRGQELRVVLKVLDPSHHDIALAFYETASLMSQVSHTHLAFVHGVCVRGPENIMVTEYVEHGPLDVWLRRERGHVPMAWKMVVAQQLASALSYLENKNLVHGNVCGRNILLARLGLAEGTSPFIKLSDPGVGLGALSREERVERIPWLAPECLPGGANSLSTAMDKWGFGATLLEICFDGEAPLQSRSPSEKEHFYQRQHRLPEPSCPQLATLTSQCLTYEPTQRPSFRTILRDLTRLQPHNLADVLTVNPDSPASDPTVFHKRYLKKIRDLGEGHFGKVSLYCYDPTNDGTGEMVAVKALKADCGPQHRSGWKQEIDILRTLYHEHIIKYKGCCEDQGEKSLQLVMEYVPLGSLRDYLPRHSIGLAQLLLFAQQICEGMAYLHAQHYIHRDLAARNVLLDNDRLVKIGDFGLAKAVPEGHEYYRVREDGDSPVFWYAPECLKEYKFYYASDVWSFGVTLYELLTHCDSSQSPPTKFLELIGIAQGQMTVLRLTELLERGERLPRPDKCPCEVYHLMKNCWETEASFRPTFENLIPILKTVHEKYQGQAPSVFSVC
Tyrosine-protein kinase JAK1, sequence (P23458 whole entry): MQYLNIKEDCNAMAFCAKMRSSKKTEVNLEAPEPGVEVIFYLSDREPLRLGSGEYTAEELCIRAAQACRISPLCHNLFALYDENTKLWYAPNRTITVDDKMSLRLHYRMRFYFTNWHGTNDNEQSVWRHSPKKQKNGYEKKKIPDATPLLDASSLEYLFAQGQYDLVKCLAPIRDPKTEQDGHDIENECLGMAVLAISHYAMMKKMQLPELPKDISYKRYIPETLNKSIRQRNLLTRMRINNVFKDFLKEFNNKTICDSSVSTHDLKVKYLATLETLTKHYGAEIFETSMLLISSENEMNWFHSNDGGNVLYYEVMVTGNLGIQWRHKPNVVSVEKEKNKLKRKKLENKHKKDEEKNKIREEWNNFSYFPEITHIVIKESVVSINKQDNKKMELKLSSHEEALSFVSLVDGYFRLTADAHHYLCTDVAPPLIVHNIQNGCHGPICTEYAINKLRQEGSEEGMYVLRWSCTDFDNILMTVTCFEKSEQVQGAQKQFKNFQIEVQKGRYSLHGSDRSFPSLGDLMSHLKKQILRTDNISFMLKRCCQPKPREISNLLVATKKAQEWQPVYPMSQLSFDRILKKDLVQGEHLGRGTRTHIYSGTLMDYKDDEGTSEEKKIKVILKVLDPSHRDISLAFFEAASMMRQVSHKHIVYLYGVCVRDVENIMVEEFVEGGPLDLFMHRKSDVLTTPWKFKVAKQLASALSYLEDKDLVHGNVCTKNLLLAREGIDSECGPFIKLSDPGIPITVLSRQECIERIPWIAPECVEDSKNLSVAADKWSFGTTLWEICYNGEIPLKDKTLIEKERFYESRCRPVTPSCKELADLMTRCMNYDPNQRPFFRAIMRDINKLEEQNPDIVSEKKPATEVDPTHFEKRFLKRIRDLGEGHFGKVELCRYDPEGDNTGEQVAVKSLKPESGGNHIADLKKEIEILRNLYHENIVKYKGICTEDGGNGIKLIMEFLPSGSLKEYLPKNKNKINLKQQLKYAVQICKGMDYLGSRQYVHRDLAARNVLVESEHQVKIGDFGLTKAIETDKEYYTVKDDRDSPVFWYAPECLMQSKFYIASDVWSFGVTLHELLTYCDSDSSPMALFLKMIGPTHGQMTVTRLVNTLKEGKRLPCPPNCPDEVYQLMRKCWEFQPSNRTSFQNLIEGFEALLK

As to `C1=C/COCc2cncc(c2)-c2ccnc(n2)Nc2cccc(c2)COC/1`, the pIC50 was 6.70 in assay [1]; under 5.00 in assay [2]; 6.03 in assay [3]; under 5.00 in assay [4]; 6.25 in assay [5]; 6.02 in assay [6].
As for `CN1C/C=C/COCC2CCCN(C2)c2ccnc(n2)Nc2cccc(c2)C1` (mixture of isomers), the negative-log IC50 (pIC50) in assay [1], in assay [2], in [3], in assay [4], in [5] and in assay [6] was under 5.00 in each case.
In the case of `CN1C/C=C/CCn2ccc3ccc(cc32)-c2ccnc(n2)Nc2cccc(c2)C1` (mixture of isomers), the negative-log IC50 (pIC50) in [1] is 7.11; in assay [2] it was 6.00; in assay [4] it was under 5.00; in assay [5], 7.03; in [6] it was 5.82.
As for `C1=C/Cn2ccc3ccc(cc32)-c2ccnc(n2)Nc2cccc(c2)COC/1` (mixture of isomers), the pIC50 was 7.08 in [1], 5.32 in assay [2], under 5.00 in assay [4] and 7.14 in [5].
As for `CN1C/C=C/CCOc2cc(ccn2)-c2ccnc(n2)Nc2cccc(c2)C1` (mixture of isomers), the pIC50 in assay [1] is 7.66; in assay [2], 6.77; in assay [3], 6.59; in assay [4], under 5.00; in [5], 6.51; in [6], 7.19.
Consider `CN1C/C=C/COCc2cncc(c2)-c2ccnc(n2)Nc2cccc(c2)C1` (mixture of isomers), for which the pIC50 in assay [1] was 6.38; in assay [2] it was under 5.00; in assay [3], under 5.00; in [4], under 5.00; in assay [5], 5.32; in assay [6], 5.23.
Turning to `CN1C/C=C/COCC2=CC=C(O2)c2ccnc(n2)Nc2cccc(c2)C1` (mixture of isomers), the negative-log IC50 (pIC50) is 6.49 in assay [1]; 5.74 in assay [2]; 6.09 in assay [3]; under 5.00 in assay [4]; 6.11 in [5]; 5.82 in assay [6].
Consider `C1=C2COC/C=C/COCc3cccc(c3)Nc3nccc(n3)C(=C1)O2` (mixture of isomers), for which the negative-log IC50 (pIC50) was 6.17 in [1]; 5.10 in assay [2]; 6.66 in assay [3]; under 5.00 in [4]; 6.21 in [5]; 6.17 in assay [6].
With `C1=C/Cn2ccc3ccc(cc32)-c2ccnc(n2)Nc2ccc(OCCN3CCCC3)c(c2)COC/1` (mixture of isomers), the pIC50 in assay [1] was 6.64; in [3], 7.20; in assay [4], 5.94; in assay [5], 8.10.
`Cc1cnc2nc1-c1ccc3ccn(c3c1)C/C=C/COCc1cc(ccc1OCCN1CCCC1)N2` (mixture of isomers): the pIC50 in [1] is 5.60; in assay [2], 5.29; in [3] it was 6.43; in assay [4], under 5.00; in assay [5], 7.77; in assay [6], 6.36.
In the case of `C1=C/COCc2cc(ccc2OCCN2CCCC2)Nc2nccc(n2)-c2cncc(c2)COC/1` (mixture of isomers), the pIC50 in assay [1] was 5.49; in [2], under 5.00; in [3], 6.54; in assay [4], 6.00; in [5] it was 7.20; in assay [6] it was 6.20.
With `C1=C/COCc2cc(ccc2OCCN2CCCC2)Nc2nccc(n2)-c2ccnc(c2)OCC/1` (mixture of isomers), the pIC50 in assay [1] was 6.57; in [2], 6.01; in assay [3], 7.74; in assay [4], 5.85; in assay [5] it was 7.51; in assay [6], 7.52.
In the case of `CN1C/C=C/COCC2=CC=C(O2)c2ccnc(n2)Nc2ccc(OCCN3CCCC3)c(c2)C1` (mixture of isomers), the pIC50 in assay [1] is 5.80; in [2], 6.19; in assay [4], under 5.00; in assay [5], 6.92; in assay [6], 6.15.
`CN1C/C=C/COCC2=CC=C(S2)c2ccnc(n2)Nc2ccc(OCCN3CCCC3)c(c2)C1` (mixture of isomers): the pIC50 was 6.15 in assay [1]; 6.70 in [2]; 7.05 in assay [3]; under 5.00 in [4]; 7.92 in assay [5]; 7.39 in assay [6].
For `COCCOc1ccc2cc1CN(C)C/C=C/COCC1=CC=C(O1)c1ccnc(n1)N2` (mixture of isomers), the pIC50 in assay [1] is 5.07; in assay [2], 5.49; in assay [3], 5.96; in assay [4], under 5.00; in assay [5] it was 5.92; in assay [6], 6.23.
On to `C1=C/COCc2cc(ccc2OCCN2CCCC2)Nc2nccc(n2)-c2cc(co2)COC/1` (mixture of isomers), for which the negative-log IC50 (pIC50) in assay [1] was under 5.00; in assay [2], 5.72; in assay [3] it was 6.96; in assay [4], 5.04; in [5], 6.74; in assay [6], 6.51.
Consider `COCCOc1ccc2cc1CN(C)C/C=C/COCC1=CC=C(S1)c1ccnc(n1)N2` (mixture of isomers), for which the pIC50 was 6.48 in assay [1]; 6.41 in [2]; 6.77 in assay [3]; under 5.00 in [4]; 7.66 in [5]; 7.48 in assay [6].
For `C1=C/COCc2cc(ccc2OCCN2CCCC2)Nc2nccc(n2)-c2ccc(s2)COC/1` (mixture of isomers), the Ratio IC50 was 397 in [7], 57 in [8] and 89 in assay [9].
